Results from patent US12173088B2, “Anti-microbial peptides” (priority 2018, dated 2024).
≈ marks a conversion by molar mass, not a printed value. Where two headings read alike, the source gives them in different places. Peptide text beside a SMILES is read from it.

Key:
E. faecium V286-17 (VRE) = assay: microbe, parasite or virus in culture; type: cell-based, Enterococcus faecium
Method in brief: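 Peptides were serially diluted two-fold against bacteria grown in tryptic soy broth to log phase (OD600 ≈0.5), then seeded at OD600 0.001. Plates were held overnight at 37° C and read at 630 nm. USA300 was also tested at pH 6.8, 7.2 and 8.0, with 150 mM NaCl or 5-10% serum, plasma or peritoneal fluid.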

A. baumannii B26-16 = assay: microbe, parasite or virus in culture; type: cell-based, Acinetobacter baumannii
Method in brief: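 Broth microdilution in tryptic soy broth: log-phase cultures diluted to 0.001 OD600 and exposed to peptide dilutions overnight at 37 °C, growth read at 630 nm. For S. aureus USA300, medium effects tested at pH 6.8, 7.2 and 8.0, with 150 mM NaCl, or with 5–10% human serum, mouse plasma or peritoneal fluid.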

[1] = Stability in mouse plasma and peritoneal fluid; type: in vitro ADME; conditions: murine peritoneal fluids or plasma for 3 hours
Experimental: Stability of horine and verine was evaluated in the presence of mouse plasma and peritoneal fluid using SDS-PAGE electrophoresis. […] […] The gels were stained using the Coomassie Brilliant Blue G-250 dye.

[2] = Cell viability assay (MTS); type: cell-based; conditions: human, read-out: LC50
Experimental: Peptides assessed for potential cytotoxicity using HepaRG (human hepatic progenitor cell line) and HEK-293 (human embryonic kidney) cells. Briefly, cells were seeded at a density of 1×10^4 per well in a tissue culture 96-well plate. For HepaRG cells, the working medium is prepared by adding the HepaRG Supplement to 100 ml/500 ml of Williams' Medium E and 1 ml/5 ml of GlutaMAX-1. For HEK-293 cells, DMEM supplemented with 10% fetal bovine serum (FBS) for both cell lines, and incubated at 37° C. in a 5% CO2 atmosphere for 24 hours. Culture medium was aspirated and replaced with fresh serum free media. Cells were exposed to different concentration of horine and verine for 1 hour at 37° C. in a 5% CO2 atmosphere. Post-incubation, the cells were washed and incubated with 100 μL of HepaRG specific/DMEM media containing 20 μL of MTS reagent for 2 hours at 37° C. Absorbance was read at 492 nm using a ChroMate® microplate reader (GMI).

Liver microsomal assay = type: in vitro ADME; conditions: in one hour
[3] = tested on: human red blood cells (hRBCs); assay: Hemolytic assay; type: cell-based
Method in brief: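 HL50 marks the peptide level lysing half of a 2% (v/v) suspension of washed human erythrocytes after 1 h at 37 °C. Released hemoglobin measured at 545 nm, scaled between PBS (0%) and Triton X-100 (2% or 1%; 100%). Selectivity index computed as HL50 over MIC.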

Toxicity to cells = type: cell-based; conditions: splenocytes (mouse spleen), Spleenocytes, read-out: LC50 (the source's name)
[4] = tested on: S. aureus JE2 (wild type)
Experimental: (§1) The antibacterial activity of peptides was evaluated using a standard broth microdilution protocol with minor modifications (Mishra, et al. (2017) Acta Biomater., 49:316-328). In brief, logarithmic phase bacterial cultures (i.e., optical density at 600 nm≈0.5) were diluted to 0.001 OD and aliquoted 90 μL per well into a 96-well polystyrene microplate. Added 10 μL peptides per well with various concentrations, plates were incubated at 37° C., overnight. Post incubation the plates are read at 630 nm using a ChroMate® Microplate Reader (GMI). […] To study the influence of medium conditions on the antimicrobial activity of peptides against S. aureus USA300 at different pHs (6.8, 7.2, and 8.0), 150 mM sodium chloride (NaCl), 5-10% of human serum, mouse plasma, and peritoneal fluid were included into the assays.

S. aureus ΔmprF mutant = conditions: Table 17; strain ΔmprF
Experimental: as §1

[5] = HEK-293 (human embryonic kidney) cells, HEK293
[6] = HepaRG (human hepatic progenitor cell line)

SMILES: CN[C@H](CC(C)C)C(=O)N[C@H]1C(=O)N[C@@H](CC(N)=O)C(=O)N[C@H]2C(=O)N[C@H]3C(=O)N[C@H](C(=O)N[C@H](C(=O)O)c4cc(O)cc(O)c4-c4cc3ccc4O)[C@H](O)c3ccc(c(Cl)c3)Oc3cc2cc(c3O[C@@H]2O[C@H](CO)[C@@H](O)[C@H](O)[C@H]2O[C@H]2C[C@](C)(N)[C@H](O)[C@H](C)O2)Oc2ccc(cc2Cl)[C@H]1O [Vancomycin]
- MIC (E. faecium V286-17 (VRE); Enterococcus faecium, VRE, read-out: MIC E. faecium V286-17 (VRE), Table 7): ≥ 12.5 µM
- MIC (E. faecium V286-17 (VRE); Enterococcus faecium, VRE, read-out: MIC E. faecium V286-17 (VRE), Table 14): > 8 µM
- MIC (A. baumannii B26-16; Acinetobacter baumannii, B2616, read-out: MIC A. baumannii B26-16): > 8 µM

SMILES: CC(C)C[C@H](NC(=O)[C@H](Cc1c[nH]c2ccccc12)NC(=O)[C@H](Cc1c[nH]c2ccccc12)NC(=O)[C@@H](N)Cc1c[nH]c2ccccc12)C(=O)N[C@@H](CCCNC(=N)N)C(=O)N[C@@H](CCCNC(=N)N)C(=O)N[C@@H](CCCNC(=N)N)C(=O)N[C@@H](Cc1c[nH]c2ccccc12)C(N)=O [Horine, WWWLRRRW] (H-WWWLRRRW-NH2; N-terminus and C-terminus assumed)
- Stability after incubation [1]: stable and active
- CC50 at 1 hour [2, 5]: > 100 µM
- CC50 at 1 hour [2, 6]: > 80 µM
- Degradation in liver microsomal assay (Liver microsomal assay): 5000
- MIC (E. faecium V286-17 (VRE); V286-17 (VRE), read-out: MIC E. faecium V286-17 (VRE)): 2 µM (≈ 2.69 µg/mL)
- HL50 [3]: 150 µM
- CC50 (Toxicity to cells): > 50 µM
- MIC (A. baumannii B26-16; B26-16, read-out: MIC A. baumannii B26-16): 32 µM (≈ 43 µg/mL)
- MIC ([4]; JE2 (wild type)): 4 µM (≈ 5.37 µg/mL)
- MIC (S. aureus ΔmprF mutant): 2 µM (≈ 2.69 µg/mL)

SMILES: CC(C)C[C@H](NC(=O)[C@H](CC(C)C)NC(=O)[C@H](CCCCN)NC(=O)[C@H](CC(C)C)NC(=O)CNC(=O)[C@H](CC(C)C)NC(=O)[C@H](CO)NC(=O)[C@H](CC(C)C)NC(=O)[C@H](CC(C)C)NC(=O)[C@H](CC(C)C)NC(=O)[C@H](CCCCN)NC(=O)[C@H](CC(C)C)NC(=O)CN)C(N)=O [DFT561, GLKLLLSLGLKLL] (H-GLKLLLSLGLKLL-NH2; N-terminus and C-terminus assumed)
- MIC E. faecium V286-17 (VRE) (E. faecium V286-17 (VRE); V286-17 (VRE)): 3.1 to 6.25 µM

SMILES: CC(C)[C@H](NC(=O)[C@H](Cc1c[nH]c2ccccc12)NC(=O)[C@H](Cc1c[nH]c2ccccc12)NC(=O)[C@H](Cc1c[nH]c2ccccc12)NC(=O)[C@H](Cc1c[nH]c2ccccc12)NC(=O)[C@H](CCCNC(=N)N)NC(=O)[C@H](CCCNC(=N)N)NC(=O)[C@@H](N)CCCNC(=N)N)C(N)=O [Verine, RRRWWWWV] (H-RRRWWWWV-NH2; N-terminus and C-terminus assumed)
- Stability after incubation [1]: stable and active
- CC50 at 1 hour [2, 5]: > 80 µM
- CC50 at 1 hour [2, 6]: > 80 µM
- Degradation in liver microsomal assay (Liver microsomal assay): 5000
- MIC (E. faecium V286-17 (VRE); Table 14, read-out: MIC E. faecium V286-17 (VRE)): 2 µM (≈ 2.66 µg/mL)
- HL50 ([3]; Table 12): 130^2 μM
- CC50 (Toxicity to cells): > 12.5 µM
- MIC (A. baumannii B26-16; Table 14, read-out: MIC A. baumannii B26-16): 8 µM (≈ 10.6 µg/mL)
- MIC ([4]; Table 17, strain JE2): 4 µM (≈ 5.32 µg/mL)
- MIC (S. aureus ΔmprF mutant): 2 µM (≈ 2.66 µg/mL)
